“Also recorded” adds a separate entry of the source. Non-standard residues stand in square brackets, D forms with d. Residues, ends and D or L forms follow the SMILES beside them. No end group written: not given here. *: point of attachment. FITC = O=C1OC2(c3ccc(O)cc3Oc3cc(O)ccc32)c2ccc(NC(=S)*)cc21; pT = C[C@@H](OP(=O)(O)O)[C@H](N)C(=O)O; pS = N[C@@H](COP(=O)(O)O)C(=O)O
Legend:
14-3-3γ (gamma) = 14-3-3γ (gamma) (Homo sapiens, UniProt P61981); format: binding
14-3-3σ (sigma) = 14-3-3σ (sigma) (Homo sapiens, UniProt P31947); format: binding
[1] = tested on: all seven human 14-3-3 isoforms; format: binding
14-3-3γ = 14-3-3γ (Homo sapiens, UniProt P61981); format: binding
crystal structure = molecular target: the molecule itself; test: crystal structure
[2] = molecular target: T1, Untagged full-length human 14-3-3γ (human, UniProt P61981 1-247); test: fluorescence polarisation
T1 sequence: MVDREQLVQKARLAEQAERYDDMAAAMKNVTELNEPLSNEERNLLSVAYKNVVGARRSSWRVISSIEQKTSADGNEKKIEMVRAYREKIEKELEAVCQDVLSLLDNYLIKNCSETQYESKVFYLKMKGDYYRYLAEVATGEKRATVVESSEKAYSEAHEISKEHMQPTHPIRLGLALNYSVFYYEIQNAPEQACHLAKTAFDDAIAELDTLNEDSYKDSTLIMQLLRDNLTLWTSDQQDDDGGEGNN

14-3-3σ (sigma), sequence (P31947 whole entry, canonical isoform): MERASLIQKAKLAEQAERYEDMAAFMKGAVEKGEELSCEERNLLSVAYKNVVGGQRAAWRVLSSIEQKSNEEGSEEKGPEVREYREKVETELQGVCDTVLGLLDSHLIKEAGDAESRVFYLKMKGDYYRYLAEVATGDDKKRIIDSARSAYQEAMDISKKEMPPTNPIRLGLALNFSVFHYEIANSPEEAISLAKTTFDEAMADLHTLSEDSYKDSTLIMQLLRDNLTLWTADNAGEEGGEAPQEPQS

In the case of `O=C1OC2(c3ccc(O)cc3Oc3cc(O)ccc32)c2ccc(N=C=S)cc21` [free FITC, fluorescein 5-isothiocyanate, reference compound], the “Binding to MBP-14-3-3 (free FITC control)” value (14-3-3γ (gamma)) is reported as “did not show significant binding”.

For `CSCC[C@H](NC(=O)[C@H](CCCNC(=N)N)NC(=O)[C@H](C)NC(=O)[C@@H]1CCCN1C(=O)[C@H](CO)NC(=O)[C@@H](NC(=O)CNC(=O)[C@H](CCCNC(=N)N)NC(=O)[C@H](CO)NC(=O)[C@H](CO)NC(=O)[C@H](Cc1c[nH]c2ccccc12)NC(=S)Nc1ccc2c(c1)C(=O)OC21c2ccc(O)cc2Oc2cc(O)ccc21)[C@@H](C)OP(=O)(O)O)C(=O)O` [pT205] ({FITC}-WSSRG[pT]SPARM-OH), the “Selectivity coefficient (KD pS197 / KD pT205), gamma” value (14-3-3γ (gamma)) was ~7, the “Ratio: affinity of 14-3-3σ to pT205 versus pS197 peptide” value (14-3-3σ (sigma)) was ~3 times tighter and the “Affinity preference” value [1] was “preferred over the pS197-motif by all seven human 14-3-3 isoforms; also recorded: consistently tighter affinity than the pS197 fragment”. The “KD ratio between weakest (14-3-3σ/pS197) and strongest (14-3-3γ/pT205) pair” value [1] was ~10 fold, the “Order of affinity over the 14-3-3 isoforms” value [1] was “gamma (γ) > eta (η) > beta (β) > epsilon (ε) > zeta (ζ) > tau (τ) > sigma (σ)” and the “Ratio of the average KD values pS197/pT205” value [1] was 4.3 fold.

In the case of WLRRApSAPLPGLK [pB6], the “Displacement of FITC-labeled peptide from 14-3-3” value (14-3-3γ) is reported as “could be disrupted”.

B1: C-terminally truncated human 14-3-3σ (residues 1–231) Clu3 mutant (75EEK77 → 75AAA77) (domain or fragment)
chain: MERASLIQKAKLAEQAERYEDMAAFMKGAVEKGEELSCEERNLLSVAYKNVVGGQRAAWRVLSSIEQKSNEEGSAAAGPEVREYREKVETELQGVCDTVLGLLDSHLIKEAGDAESRVFYLKMKGDYYRYLAEVATGDDKKRIIDSARSAYQEAMDISKKEMPPTNPIRLGLALNFSVFHYEIANSPEEAISLAKTTFDEAMADLHTLSEDSYKDSTLIMQLLRDNLTLWT
In the case of B1, the “stoichiometry N” value (crystal structure) is reported as 2.

B2: C-terminally truncated human 14-3-3σ (residues 1–231) Clu1 mutant (159KKE161 → 159AAA161) (domain or fragment)
chain: MERASLIQKAKLAEQAERYEDMAAFMKGAVEKGEELSCEERNLLSVAYKNVVGGQRAAWRVLSSIEQKSNEEGSEEKGPEVREYREKVETELQGVCDTVLGLLDSHLIKEAGDAESRVFYLKMKGDYYRYLAEVATGDDKKRIIDSARSAYQEAMDISAAAMPPTNPIRLGLALNFSVFHYEIANSPEEAISLAKTTFDEAMADLHTLSEDSYKDSTLIMQLLRDNLTLWT
B2 was tested, and the “stoichiometry N” value (crystal structure) was 2.

WLRRA[pS]APLPGLK [Unlabeled phosphopeptide of human HSPB6 (pB6) WLRRApSAPLPGLK]: binds [2].

Reference: article PMC9683861 (Journal of Molecular Biology, 2022)
